Test results from US20240158446A1, “CYCLIC COMPOUND HAVING SELECTIVE INHIBITORY ACTION ON KRAS OVER HRAS AND NRAS” (CHUGAI SEIYAKU KABUSHIKI KAISHA, priority 2021, published 2024).
Read-outs that look alike come from different tables or passages of the source. *1 amine or outer side, *2 acyl side, *3 side chain or, on linkers, in order; H or OH if unused. Where a SMILES comes first, the peptide text is derived from it. Bridges are numbered along the chain shown (N, C = ends). [ ]: non-standard residue; d: D form. The star is where a group is joined. hPhe(3-Cl-4-CF3) = N[C@@H](CCc1ccc(C(F)(F)F)c(Cl)c1)C(=O)O; NPrPhe(4-CF3) = CCCN[C@@H](Cc1ccc(C(F)(F)F)cc1)C(=O)O; NMeGly(cPent) = CN[C@H](C(=O)O)C1CCCC1; NMeD = CN[C@@H](CC(=O)O)C(=O)O; X1 = O=C(CN(CC(F)F)[*:1])[*:2]; NMeL = CN[C@@H](CC(C)C)C(=O)O; Morpholide = C1CN(*)CCO1; Ac5c = NC1(C(=O)O)CCCC1; Sar = CNCC(=O)O

Experiments:
[1] = molecular target: GDP-bound NRAS wild-type protein (Homo sapiens, UniProt P01111); assay: Binding to NRAS by surface plasmon resonance (SPR), Single Cycle Kinetics; conditions: for NRAS/KRAS (ratio of KD value with respect to GDP-bound NRAS wild-type protein to KD value with respect to KRAS): SPR KD ratio NRAS/KRAS, class symbols
[2] = molecular target: GDP-bound KRAS wild-type protein (Homo sapiens, UniProt P01116); assay: Binding to KRAS by surface plasmon resonance (SPR), Single Cycle Kinetics
[3] = tested on: human lung cancer strain NCI-H441;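 further: cell proliferation inhibition after four days measured by CellTiter-Glo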
[4] = molecular target: GDP-bound HRAS wild-type protein (Homo sapiens, UniProt P01112); assay: Binding to HRAS by surface plasmon resonance (SPR), Single Cycle Kinetics; conditions: for HRAS/KRAS (ratio of KD value with respect to GDP-bound HRAS wild-type protein to KD value with respect to KRAS): SPR KD ratio HRAS/KRAS, class symbols
[5] = SPR, GDP-bound NRAS wild-type protein vs GDP-bound KRAS wild-type protein
[6] = SPR, Single Cycle Kinetics, GDP-bound KRAS wild-type protein, read-out: KRAS KD
[7] = SPR, GDP-bound HRAS wild-type protein vs GDP-bound KRAS wild-type protein
[8] = SPR Single Cycle Kinetics, GDP-bound KRAS wild-type protein, 1:1 binding model, read-out: KRAS KD
[9] = SPR, GDP-bound NRAS wild-type protein vs GDP-bound KRAS wild-type protein, KD ratio class
[10] = SPR, Single Cycle Kinetics, 1:1 binding model, GDP-bound KRAS wild-type protein, read-out: KRAS KD
[11] = SPR, GDP-bound HRAS wild-type protein vs GDP-bound KRAS wild-type protein, KD ratio class

Chain of GDP-bound KRAS wild-type protein (P01116 whole entry): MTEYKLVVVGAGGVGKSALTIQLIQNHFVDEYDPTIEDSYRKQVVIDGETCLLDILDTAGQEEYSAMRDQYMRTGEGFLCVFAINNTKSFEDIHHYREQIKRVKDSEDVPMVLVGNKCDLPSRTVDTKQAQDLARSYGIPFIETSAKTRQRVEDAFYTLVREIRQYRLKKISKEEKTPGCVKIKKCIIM
Chain of GDP-bound HRAS wild-type protein (P01112 whole entry): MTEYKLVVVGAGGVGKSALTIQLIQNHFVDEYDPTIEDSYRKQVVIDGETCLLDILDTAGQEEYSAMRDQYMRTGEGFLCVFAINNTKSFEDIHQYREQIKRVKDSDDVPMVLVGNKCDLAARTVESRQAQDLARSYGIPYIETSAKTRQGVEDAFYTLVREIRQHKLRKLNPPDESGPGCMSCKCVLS
Chain of GDP-bound NRAS wild-type protein (P01111 whole entry): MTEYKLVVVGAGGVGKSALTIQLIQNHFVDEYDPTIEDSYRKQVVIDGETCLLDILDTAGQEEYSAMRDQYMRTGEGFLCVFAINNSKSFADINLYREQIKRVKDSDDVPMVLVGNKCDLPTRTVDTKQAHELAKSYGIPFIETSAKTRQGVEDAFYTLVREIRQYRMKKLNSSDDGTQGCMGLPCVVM

SMILES	NRAS/KRAS (ratio of KD value for NRAS to KD value for KRAS) [1, 5]	Kd [2, 6]	IC50 [3]	HRAS/KRAS (ratio of KD value for HRAS to KD value for KRAS) [4, 7]	further results
CCO[C@@H]1C[C@H]2C(=O)NC3(CC(C)(C)C3)C(=O)N(C)[C@@H](C3CCCC3)C(=O)N(C)[C@H](C(=O)N(C)CC)CC(=O)N(C)[C@@H](COC)C(=O)N[C@@H]([C@@H](C)CC)C(=O)N(C)CC(=O)N(C)[C@H]3C/C=C\CCN(C3=O)[C@@H](Cc3ccc(C)cc3)C(=O)N(C)CC(=O)N[C@@H](CCc3cc(F)c(C(F)(F)F)c(F)c3)C(=O)N2C1 [PP2396]	A (a compound having 10 or more and less than 20 is denoted as A)	0.069 nM	4.1 nM	A (a compound having 10 or more and less than 20 is denoted as A)	–
CCC[C@H]1C(=O)N[C@@H]([C@@H](C)CC)C(=O)N2CCC[C@H]2C(=O)N(C)[C@H]2C/C=C\CCN(C2=O)[C@@H](CC2CCC(F)(F)CC2)C(=O)N(C)CC(=O)N[C@@H](CCc2ccc(C(F)(F)F)c(OC)c2)C(=O)N2C[C@H](OCC)C[C@H]2C(=O)N(C)C2(CCC2)C(=O)N(C)[C@@H](C2CCCC2)C(=O)N(C)[C@H](C(=O)N(C)C)CC(=O)N1C [PP2356]	A (a compound having 10 or more and less than 20 is denoted as A)	0.94 nM	14.7 nM	A (a compound having 10 or more and less than 20 is denoted as A)	–
CCC(CC)[C@H]1C(=O)N(C)[C@H](C(=O)N(C)C)CC(=O)N(C)[C@@H](COC)C(=O)N[C@@H]([C@@H](C)CC)C(=O)N2CCC[C@H]2C(=O)N(C)[C@H]2C/C=C\CCN(C2=O)[C@@H](Cc2ccc(C(F)(F)F)cc2)C(=O)N(C)CC(=O)N[C@@H](CCc2ccc(Cl)c(Cl)c2)C(=O)N2C[C@H](OC3CCCC3)C[C@H]2C(=O)NC2(CC(C)(C)C2)C(=O)N1C [PP2651]	–	–	147 nM	–	NRAS/KRAS (ratio of KD value with respect to GDP-bound NRAS wild-type protein to KD value with respect to KRAS) [1]: AA (a compound having 20 or more is denoted as AA); Kd [2, 8]: 1.9 nM; HRAS/KRAS (ratio of KD value with respect to GDP-bound HRAS wild-type protein to KD value with respect to KRAS) [4]: A (a compound having 10 or more and less than 20 is denoted as A)
CC[C@H](C)[C@@H]1NC(=O)[C@H](CC)N(C)C(=O)C[C@@H](C(=O)N(C)C)N(C)C(=O)[C@H](C2CCCC2)N(C)C(=O)C2(CCC2)NC(=O)[C@H](CC2CCCCC2)N(C)C(=O)[C@H](CCc2cc(F)c(C(F)(F)F)c(F)c2)NC(=O)CN(C)C(=O)[C@H](Cc2ccc(C(F)(F)F)cc2)N2CC/C=C\C[C@@H](C2=O)N(C)C(=O)CN(C)C1=O [PP1149]	A (a compound having 10 or more and less than 20 is denoted as A)	0.43 nM	173 nM	A (a compound having 10 or more and less than 20 is denoted as A)	–
CCO[C@@H]1C[C@H]2C(=O)NC3(CCC3)C(=O)N(C)[C@@H](C3CCCC3)C(=O)N(C)[C@H](C)CC(=O)N(C)[C@@H](CC3CCCC3)C(=O)N[C@@H]([C@@H](C)CC)C(=O)N(C)CC(=O)N(C)[C@H]3C/C=C\CCN(C3=O)[C@@H](Cc3ccc(C)cc3)C(=O)N(C)CC(=O)N[C@@H](CCc3cc(F)c(C(F)(F)F)c(F)c3)C(=O)N2C1 [PP1413]	–	–	62.5 nM	–	NRAS/KRAS (ratio of KD value for NRAS to KD value for KRAS) [1, 9]: B (a compound having 3 or more and less than 10 is denoted as B); Kd [2, 10]: 0.42 nM; HRAS/KRAS (ratio of KD value for HRAS to KD value for KRAS) [4, 11]: B (a compound having 3 or more and less than 10 is denoted as B)
CCO[C@@H]1C[C@H]2C(=O)NC3(CC(C)(C)C3)C(=O)N(C)[C@@H](C(CC)CC)C(=O)N(C)[C@H](C(=O)N3CCCCC3)CC(=O)N(C)[C@@H](COC)C(=O)N[C@@H]([C@@H](C)CC)C(=O)N(C)CC(=O)N(C)[C@H]3C/C=C\CCN(C3=O)[C@@H](Cc3ccc(C(F)(F)F)cc3)C(=O)N(C)CC(=O)N[C@@H](CCc3cc(F)c(C(F)(F)F)c(F)c3)C(=O)N2C1 [PP2606]	–	–	68.7 nM	–	NRAS/KRAS (ratio of KD value with respect to GDP-bound NRAS wild-type protein to KD value with respect to KRAS) [1]: AA (a compound having 20 or more is denoted as AA); Kd [2, 8]: 0.81 nM; HRAS/KRAS (ratio of KD value with respect to GDP-bound HRAS wild-type protein to KD value with respect to KRAS) [4]: AA (a compound having 20 or more is denoted as AA)
CCC[C@H]1C(=O)N[C@@H]([C@@H](C)CC)C(=O)N(C2CC2)CC(=O)N(C)[C@H]2C/C=C\CCN(C2=O)[C@@H](Cc2ccc(C)cc2)C(=O)N(C)CC(=O)N[C@@H](CCc2cc(F)c(C(F)(F)F)c(F)c2)C(=O)N2C[C@H](OCC)C[C@H]2C(=O)N(C)C2(CCC2)C(=O)N(C)[C@@H](C2CCCC2)C(=O)N(C)[C@H](C(=O)N2CCCC2)CC(=O)N1C [PP3113, (2S,8S,12R,14S,20S,23S,27S,30S,36S,38Z)-20-cyclopentyl-32-cyclopropyl-8-[2-[3,5-difluoro-4-(trifluoromethyl)phenyl]ethyl]-12-ethoxy-4,16,19,22,26,35-hexamethyl-30-[(1S)-1-methylpropyl]-27-propyl-2-(p-tolylmethyl)-23-(pyrrolidine-1-carbonyl)spiro[1,4,7,10,16,19,22,26,29,32,35-undecazatricyclo[34.5.1.0^10,14]dotetracont-38-ene-17,1′-cyclobutane]-3,6,9,15,18,21,25,28,31,34,42-undecone]	A (a compound having 10 or more and less than 20 is denoted as A)	0.17 nM	–	A (a compound having 10 or more and less than 20 is denoted as A)	ratio of the KD value with respect to GDP-bound NRAS wild-type protein to the KD value with respect to KRAS ([1]; SPR, KD(NRAS)/KD(KRAS)): A (a compound having 10 or more and less than 20 is denoted as A); Kd ([2]; SPR, Single Cycle Kinetics, 1:1 binding model, read-out: KD value with respect to GDP-bound KRAS wild-type protein): 0.17 nM; IC50 ([3]; read-out: NCI-H441 cell proliferation inhibitory activity, 50% proliferation inhibitory concentration (IC50 value), NCI-H441, four days, CellTiter-Glo): 6.1 nM; ratio of the KD value with respect to GDP-bound HRAS wild-type protein to the KD value with respect to KRAS ([4]; SPR, KD(HRAS)/KD(KRAS)): A (a compound having 10 or more and less than 20 is denoted as A)
CCO[C@@H]1C[C@H]2C(=O)NC3(CCC3)C(=O)N(C)[C@@H](C(CC)CC)C(=O)N(C)[C@H](C(=O)N(C)C)CC(=O)N(C)[C@@H](CC3CC3)C(=O)N[C@@H]([C@@H](C)CC)C(=O)N(C)CC(=O)N(C)[C@H]3C/C=C\CCN(C3=O)[C@@H](Cc3ccc(C(F)(F)F)cc3)C(=O)N(C)CC(=O)N[C@@H](CCc3cc(F)c(C(F)(F)F)c(F)c3)C(=O)N2C1 [PP1203]	–	–	20.8 nM	–	NRAS/KRAS (ratio of KD value for NRAS to KD value for KRAS) [1, 9]: A (a compound having 10 or more and less than 20 is denoted as A); Kd [2, 10]: 0.23 nM; HRAS/KRAS (ratio of KD value for HRAS to KD value for KRAS) [4, 11]: A (a compound having 10 or more and less than 20 is denoted as A)
CCCN1C(=O)CN(C)C(=O)CN(CC(F)F)C(=O)[C@H]([C@@H](C)CC)NC(=O)[C@H](CC(C)C)N(C)C(=O)C[C@@H](C(=O)N2CCOCC2)N(C)C(=O)[C@H](C2CCCC2)N(C)C(=O)C2(CCCC2)NC(=O)[C@@H]2CCCN2C(=O)[C@H](CCc2ccc(C(F)(F)F)c(Cl)c2)NC(=O)CN(C)C(=O)[C@@H]1Cc1ccc(C(F)(F)F)cc1 [PP0752] ([NMeL]I[X1][Sar][NPrPhe(4-CF3)][Sar][hPhe(3-Cl-4-CF3)]P[Ac5c][NMeGly(cPent)][NMeD]-Morpholide; lactam N-11)	–	–	25.8 nM	–	NRAS/KRAS (ratio of KD value with respect to NRAS to KD value with respect to KRAS) [1, 5]: B (a compound having 3 or more and less than 10 is denoted as B); Kd [2, 8]: 0.54 nM; HRAS/KRAS (ratio of KD value with respect to HRAS to KD value with respect to KRAS) [4, 7]: B (a compound having 3 or more and less than 10 is denoted as B)
CC[C@H](C)[C@@H]1NC(=O)[C@H](CC(C)C)N(C)C(=O)C[C@@H](C(=O)N(C)CC)N(C)C(=O)[C@H](C2CCCC2)N(C)C(=O)C2(CC(C)(C)C2)NC(=O)[C@@H]2C[C@H](C)CN2C(=O)[C@H](CCc2ccc(C(F)(F)F)c(OC)c2)NC(=O)CN(C)C(=O)[C@H](Cc2ccc(C)cc2)N2CC/C=C\C[C@@H](C2=O)N(C)C(=O)[C@@H]2CCCN2C1=O [PP2410]	A (a compound having 10 or more and less than 20 is denoted as A)	1.1 nM	108 nM	A (a compound having 10 or more and less than 20 is denoted as A)	–
CC[C@H](C)[C@@H]1NC(=O)[C@H](CC(C)C)N(C)C(=O)C[C@@H](C(=O)N2CCOCC2)N(C)C(=O)[C@H](C2CCCC2)N(C)C(=O)C2(CCC2)NC(=O)[C@@H]2[C@@H](OCC(F)F)CCN2C(=O)[C@H](CCc2cc(F)c(C(F)(F)F)c(F)c2)NC(=O)CN(C)C(=O)[C@H](Cc2ccc(C(F)(F)F)cc2)N2CCCCC[C@@H](C2=O)N(C)C(=O)CN(C)C1=O [PP1012]	A (a compound having 10 or more and less than 20 is denoted as A)	0.9 nM	41.6 nM	B (a compound having 3 or more and less than 10 is denoted as B)	–
